Experimental findings from ChEMBL document CHEMBL1201862, “PubChem BioAssay data set” (2004) are described below.

Molecules are shown by their SMILES.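 Grown in 96-well plates, cells were treated for 48 hours with each compound at five concentrations. Insufficient inhibition: endpoint recorded as highest concentration tested. At the GI50, growth is halved.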 Calls of active or inactive are those of the source. Rule as the data show it: active = GI50 up to about 1.1 µM and inactive = higher.

Among the test systems are A498; COLO 205; HCT-15; HL-60; Hs-578T; LOX IMVI; M14; Malme-3M; NCI-H226; NCI-H460; OVCAR-3; OVCAR-5; PC-3; RPMI-8226; SF-539; SK-MEL-2; SK-MEL-5; SNB-19; UACC-257; UACC-62.
Common to all, as to assay: inhibition of tumour cell growth, NCI panel, 48 h

Regarding `COC(=O)[C@]1(c2cc3ccccc3[nH]2)CC2CN(C(=O)OCc3ccccc3)C1CC2=O` (stereo partly drawn), the GI50 is 20 µM (inactive) with A498; 16.5 µM (inactive) in the experiment on COLO 205; 27.5 µM in the experiment on HCT-15; 16.4 µM (inactive) in the experiment with HL-60; 19.4 µM (inactive) in the experiment on Hs-578T; 22.5 µM (inactive) in the experiment with LOX IMVI. For the same compound, the GI50 in the experiment on M14 was 30.5 µM (inactive); with Malme-3M, 20.7 µM (inactive); in the experiment with NCI-H226, 18.2 µM (inactive); in the experiment with NCI-H460, 24.4 µM (inactive); in the experiment on OVCAR-3, 28.8 µM (inactive); with OVCAR-5 it was 14.1 µM (inactive). The GI50 with PC-3 was 17.1 µM (inactive); with RPMI-8226, 17.5 µM (inactive); with SF-539, 28.3 µM (inactive); in the experiment on SK-MEL-2, 18.2 µM (inactive); in the experiment with SK-MEL-5 it was 17.1 µM (inactive); in the experiment with SNB-19, 59.7 µM (inactive). Besides, the GI50 in the experiment with UACC-257 was 36.3 µM (inactive); in the experiment on UACC-62, 17.1 µM (inactive).
`COc1ccccc1/C=C1\CCC(Cc2ccccc2)(CN(C)C)C1=O` (stereo not drawn): the GI50 in the experiment with A498 was 6.93 µM (inactive); in the experiment with COLO 205 it was 1.37 µM (inactive); in the experiment on HCT-15 it was 0.29 µM; in the experiment on HL-60, 0.471 µM (active); in the experiment with Hs-578T it was 0.834 µM (active); in the experiment with LOX IMVI, 1.19 µM (inactive). In addition, the GI50 in the experiment with M14 was 3.13 µM (inactive); with Malme-3M, 14.1 µM (inactive); in the experiment on NCI-H226, 23.6 µM (inactive); in the experiment on NCI-H460, 0.698 µM (active); with OVCAR-3, 0.942 µM (active); in the experiment with OVCAR-5, 14.5 µM (inactive). The GI50 was 1.03 µM (active) with PC-3; 0.612 µM (active) in the experiment on RPMI-8226; 1.52 µM (inactive) with SF-539; 6.53 µM (inactive) with SK-MEL-2; 1.85 µM (inactive) in the experiment on SK-MEL-5; 1.57 µM (inactive) with SNB-19. Also, the GI50 with UACC-257 was 12.3 µM (inactive); in the experiment with UACC-62, 1.28 µM (inactive).
For `CCOC(=O)/C(C(=O)Nc1cccc(Cl)c1)=C(/N)N1CCOCC1`, the GI50 was > 100 µM (inactive) in the experiment on A498; > 100 µM (inactive) in the experiment with COLO 205; more than 100 µM in the experiment with HCT-15; > 100 µM (inactive) in the experiment on HL-60; > 100 µM (inactive) in the experiment on Hs-578T; > 100 µM (inactive) in the experiment with LOX IMVI. The GI50 with M14, in the experiment on Malme-3M, in the experiment on NCI-H226, in the experiment on NCI-H460, in the experiment on OVCAR-3 and in the experiment with OVCAR-5 was > 100 µM (inactive) each time. In addition, the GI50 in the experiment on PC-3, in the experiment on RPMI-8226, with SF-539, in the experiment with SK-MEL-2, in the experiment on SNB-19 and in the experiment on UACC-257 was > 100 µM (inactive) in each case. Besides, the GI50 in the experiment on UACC-62 was > 100 µM (inactive).
For `C=C(C)C1=CCC[C@]2(C1)N=C(OC)[C@@H](C(C)C)N=C2OC`, the GI50 with A498 was > 100 µM (inactive); in the experiment on COLO 205, > 100 µM (inactive); in the experiment on HCT-15 it was more than 100 µM; with HL-60, 28.3 µM (inactive); with Hs-578T it was > 100 µM (inactive); with M14, > 100 µM (inactive). The GI50 in the experiment with Malme-3M, with NCI-H226, with NCI-H460, in the experiment on OVCAR-3, in the experiment with OVCAR-5 and in the experiment on PC-3 was > 100 µM (inactive) in each case. Besides, the GI50 was 16.3 µM (inactive) with RPMI-8226; > 100 µM (inactive) in the experiment with SF-539; > 100 µM (inactive) in the experiment on SK-MEL-2; 98.6 µM (inactive) in the experiment with SK-MEL-5; > 100 µM (inactive) in the experiment with SNB-19; > 100 µM (inactive) in the experiment on UACC-257. In addition, in the experiment on UACC-62, the GI50 was > 100 µM (inactive).
Take `CC(C)N(C(=O)c1ccc(NCc2cc(O)ccc2O)cc1)C(C)C`: the GI50 in the experiment with A498 was 18 µM (inactive); with COLO 205, 30.4 µM (inactive); with HCT-15, 16.8 µM; in the experiment with HL-60, 2.26 µM (inactive); in the experiment with Hs-578T, 26.2 µM (inactive); in the experiment on LOX IMVI, 14.7 µM (inactive). The GI50 in the experiment on M14 was 17.2 µM (inactive); in the experiment with Malme-3M, 13.9 µM (inactive); in the experiment with NCI-H226, 17.2 µM (inactive); in the experiment with NCI-H460, 18.2 µM (inactive); in the experiment with OVCAR-3, 11.6 µM (inactive); in the experiment on OVCAR-5 it was 21.5 µM (inactive). The GI50 was 18.8 µM (inactive) with PC-3; 12.9 µM (inactive) with SF-539; 22.3 µM (inactive) in the experiment on SK-MEL-2; 14.6 µM (inactive) with SK-MEL-5; 19.2 µM (inactive) with SNB-19; 17.4 µM (inactive) in the experiment on UACC-257. Also, in the experiment on UACC-62, the GI50 is 14.2 µM (inactive).
With `COC1(OC)CCCCCCCCC(OC)(OC)CCCCCCCC1`, the GI50 is > 100 µM (inactive) in the experiment on A498; > 100 µM (inactive) in the experiment on COLO 205; more than 100 µM with HCT-15; > 100 µM (inactive) with HL-60; > 100 µM (inactive) with Hs-578T; > 100 µM (inactive) in the experiment with LOX IMVI. The GI50 with M14, with Malme-3M, in the experiment on NCI-H226, in the experiment on NCI-H460, in the experiment on OVCAR-3 and in the experiment with OVCAR-5 was > 100 µM (inactive) in each case. The GI50 in the experiment with PC-3, in the experiment on SF-539, with SK-MEL-2, in the experiment with SK-MEL-5, with SNB-19 and in the experiment with UACC-257 was > 100 µM (inactive) each time. Besides, the GI50 in the experiment on UACC-62 is > 100 µM (inactive).
As for `COc1cc2cc(C(=O)N3CC(COS(C)(=O)=O)c4c3cc([N+](=O)[O-])c3ccccc43)[nH]c2c(OC)c1OC` (stereo not drawn), the GI50 was 10.7 µM (inactive) in the experiment with A498; > 35.6 µM (inactive) in the experiment on COLO 205; more than 31.6 µM in the experiment with HCT-15; 0.794 µM (active) in the experiment on HL-60; > 31.6 µM (inactive) in the experiment with Hs-578T; 33.2 µM (inactive) in the experiment with LOX IMVI. The GI50 in the experiment on M14 was 19 µM (inactive); with NCI-H226, > 100 µM (inactive); in the experiment on NCI-H460, 0.0986 µM (active); in the experiment with OVCAR-3, > 31.6 µM (inactive); with OVCAR-5, 18.6 µM (inactive); in the experiment with PC-3, 22.9 µM (inactive). Besides, the GI50 in the experiment with RPMI-8226 was 2.92 µM (inactive); with SF-539 it was 4.05 µM (inactive); with SK-MEL-2 it was 7.71 µM (inactive); in the experiment on SK-MEL-5, > 10 µM (inactive); in the experiment on SNB-19 it was > 31.6 µM (inactive); in the experiment with UACC-257 it was > 31.6 µM (inactive). Also, the GI50 in the experiment on UACC-62 was 2.74 µM (inactive).
On to `CC(=O)N1c2ccccc2C2=NN(C)C(=N)SC21` (stereo not drawn), for which the GI50 with A498 is 66.7 µM (inactive); with COLO 205 it was > 100 µM (inactive); with HCT-15, more than 100 µM; with HL-60, 89.5 µM (inactive); with Hs-578T it was > 100 µM (inactive); in the experiment with LOX IMVI it was > 100 µM (inactive). Further, the GI50 in the experiment with M14 is > 100 µM (inactive); in the experiment on Malme-3M it was 68.4 µM (inactive); in the experiment on NCI-H226, > 100 µM (inactive); in the experiment with NCI-H460, > 100 µM (inactive); in the experiment with OVCAR-3 it was 13.8 µM (inactive); in the experiment with OVCAR-5, > 100 µM (inactive). The GI50 in the experiment on PC-3, with RPMI-8226, with SF-539, in the experiment with SK-MEL-2, with SNB-19 and with UACC-257 was > 100 µM (inactive) each time.
